Experimental data: ChEMBL document CHEMBL3046334 (Med Chem Res, 2012)

Target: T1, Prostaglandin G/H synthase 2 (Homo sapiens, UniProt P35354)
T1 sequence (P35354 whole entry): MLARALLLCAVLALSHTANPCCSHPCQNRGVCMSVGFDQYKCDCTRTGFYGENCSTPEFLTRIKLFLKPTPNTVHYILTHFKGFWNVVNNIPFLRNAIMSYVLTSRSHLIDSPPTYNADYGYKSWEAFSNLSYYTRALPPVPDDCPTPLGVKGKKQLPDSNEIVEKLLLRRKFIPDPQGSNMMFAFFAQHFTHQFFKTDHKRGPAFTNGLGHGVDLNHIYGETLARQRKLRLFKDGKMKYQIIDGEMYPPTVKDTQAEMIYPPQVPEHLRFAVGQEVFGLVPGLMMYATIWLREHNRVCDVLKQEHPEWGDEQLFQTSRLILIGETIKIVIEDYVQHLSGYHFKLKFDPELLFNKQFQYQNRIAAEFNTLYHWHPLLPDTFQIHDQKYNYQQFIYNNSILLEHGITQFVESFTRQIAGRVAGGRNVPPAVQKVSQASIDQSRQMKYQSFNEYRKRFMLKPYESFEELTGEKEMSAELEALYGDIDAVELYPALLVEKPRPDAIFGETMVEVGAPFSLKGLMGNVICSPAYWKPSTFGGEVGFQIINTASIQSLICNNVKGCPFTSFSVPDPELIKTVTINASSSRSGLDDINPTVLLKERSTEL
Experiment: Inhibition of COX2 in Homo sapiens (human) whole blood

| IC50 [nM] | SMILES |
| --- | --- |
| 3330 | NS(=O)(=O)c1ccc(-c2nc(NCc3ccccc3)cc(C(F)(F)F)n2)cc1 |
| 1210 | CS(=O)(=O)c1ccc(-c2nc(NCCCc3cccs3)cc(C(F)(F)F)n2)cc1 |
| 32.9 | CS(=O)(=O)c1ccc(-c2nc(NC3CC=CCC3)cc(C(F)(F)F)n2)cc1 (centres undefined) |
| 3980 | Cn1cccc1CCCNc1cc(C(F)(F)F)nc(-c2ccc(S(C)(=O)=O)cc2)n1 |
